Laboratory results as given in ChEMBL document CHEMBL1201862, “PubChem BioAssay data set” (2004).
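Following 48 hours of exposure in 96-well plates, responses at five concentrations were used to interpolate endpoints linearly. GI50 = concentration required for 50% inhibition of growth.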 Active and inactive are the calls of the source. Cut-off read from the data, not from the text of the source: active = GI50 up to about 1.1 µM and inactive = higher.

Key:
Assay in all cases: growth of human tumour cells (NCI), 48 h
IGROV-1 = system: IGROV-1
OVCAR-3 = system: OVCAR-3
HT-29 = system: HT-29
SNB-19 = system: SNB-19
HCT-15 = system: HCT-15
HOP-92 = system: HOP-92
SW-620 = system: SW-620
SK-MEL-28 = system: SK-MEL-28
SK-MEL-5 = system: SK-MEL-5
TK-10 = system: TK-10
UO-31 = system: UO-31
PC-3 = system: PC-3
SF-295 = system: SF-295
A498 = system: A498
SN12C = system: SN12C
MOLT-4 = system: MOLT-4
RPMI-8226 = system: RPMI-8226
HCT-116 = system: HCT-116
K562 = system: K562

SMILES	GI50 (IGROV-1)	GI50 (OVCAR-3)	GI50 (HT-29)	GI50 (SNB-19)	GI50 (HCT-15) [µM]	GI50 (HOP-92)	GI50 (SW-620)	GI50 (SK-MEL-28)	GI50 (SK-MEL-5)	GI50 (TK-10)	GI50 (UO-31)	GI50 (PC-3)	GI50 (SF-295)	GI50 (A498)	GI50 (SN12C)	GI50 (MOLT-4)	GI50 (RPMI-8226)	GI50 (HCT-116)	GI50 (K562)
Cc1c(/N=C/C=C/c2ccccc2)c(=O)n(-c2ccccc2)n1C	33.7 µM (inactive)	24.5 µM (inactive)	27.5 µM (inactive)	30.1 µM (inactive)	47	30.3 µM (inactive)	23 µM (inactive)	14.6 µM (inactive)	15.3 µM (inactive)	30.2 µM (inactive)	36.5 µM (inactive)	33 µM (inactive)	14.4 µM (inactive)	14.7 µM (inactive)	16.1 µM (inactive)	12.9 µM (inactive)	14.3 µM (inactive)	13.7 µM (inactive)	
Cc1sc2nc(-c3ccc([N+](=O)[O-])cc3)c(/C=N/N=C(N)N)n2c1C	1.4 µM (inactive)	1.75 µM (inactive)	0.432 µM (active)	0.721 µM (active)	1.35	1.33 µM (inactive)	0.195 µM (active)	0.361 µM (active)	1.38 µM (inactive)	1.5 µM (inactive)	1.62 µM (inactive)	1.28 µM (inactive)	1.16 µM (inactive)	1.87 µM (inactive)	1.33 µM (inactive)	0.83 µM (active)	0.468 µM (active)	0.173 µM (active)	0.202 µM (active)
COc1cc(C2=C(C#N)C(N)OC3=C2COc2ccccc23)cc(OC)c1OC (stereo unspecified)	22.9 µM (inactive)	14.2 µM (inactive)	77.1 µM (inactive)	9.29 µM (inactive)	> 100	40.8 µM (inactive)	50.1 µM (inactive)	24.8 µM (inactive)	25.2 µM (inactive)	13.7 µM (inactive)	4.15 µM (inactive)	16.6 µM (inactive)		24.5 µM (inactive)	16.1 µM (inactive)	3.16 µM (inactive)	46.6 µM (inactive)	16.7 µM (inactive)	78 µM (inactive)
CCN1C(NN)=NS(=O)(=O)c2ccccc21	> 100 µM (inactive)	> 100 µM (inactive)	> 100 µM (inactive)	> 100 µM (inactive)	> 100	> 100 µM (inactive)	> 100 µM (inactive)	> 100 µM (inactive)	> 100 µM (inactive)	> 100 µM (inactive)	> 100 µM (inactive)	> 100 µM (inactive)	> 100 µM (inactive)	> 100 µM (inactive)	> 100 µM (inactive)	> 100 µM (inactive)		> 100 µM (inactive)	> 100 µM (inactive)
C[C@@H]1C[C@@H](O)[C@@]2(O)C13CC(=O)OC(C3)[C@@H](C)[C@@]2(C)CO (stereo partly specified)	> 100 µM (inactive)	> 100 µM (inactive)	> 100 µM (inactive)	> 100 µM (inactive)	> 100	> 100 µM (inactive)	> 100 µM (inactive)	> 100 µM (inactive)	> 100 µM (inactive)	> 100 µM (inactive)	> 100 µM (inactive)	> 100 µM (inactive)	> 100 µM (inactive)	> 100 µM (inactive)	> 100 µM (inactive)	> 100 µM (inactive)	> 100 µM (inactive)	> 100 µM (inactive)	> 100 µM (inactive)
O=C(NC1CCN(Cc2ccccc2)CC1)c1ccccc1I	42.6 µM (inactive)	43.9 µM (inactive)	16.6 µM (inactive)	51.4 µM (inactive)	17.7	28.7 µM (inactive)	19.7 µM (inactive)	17.8 µM (inactive)	16.9 µM (inactive)	21.6 µM (inactive)	15.8 µM (inactive)	23.6 µM (inactive)	20.2 µM (inactive)	57 µM (inactive)	62.7 µM (inactive)	17 µM (inactive)	36.3 µM (inactive)	16.7 µM (inactive)	23.3 µM (inactive)
